Laboratory results reported in patent publication US9579319B2 (Redx Pharma PLC, priority 2013, dated 2017).

What follows are compounds tested on Hedgehog signalling pathway (assay: Gli-reporter NIH3T3 luciferase assay (Hedgehog pathway inhibition)). Settings: NIH3T3; Gli-reporter NIH-3T3 cells, recombinant mouse sonic hedgehog, 24 hours, luminescence; read-out: Category (Hedgehog pathway inhibition activity, IC50).
Assay type: cell-based
Experimental: In vitro biological evaluation of compounds of the invention was carried out using the procedure detailed below. The procedure provides activity data for the compounds of the invention against the Hedgehog signalling pathway. The activity is represented as IC50 values in Table 12 below.
The Gli-reporter NIH3T3 cell line (BPS Biosciences) was grown according to the suppliers recommendations. Briefly, cells were maintained in growth medium (DMEM supplemented with 10% calf serum, 1% Penicillin/Streptomycin, and 500 µg/mL of Geneticin) and grown at 37° C., 5% CO2. In order to passage cells they were first rinsed with phosphate buffered saline before the addition of 0.05% Trypsin/EDTA. Fresh growth media was added and the cells were transferred to a centrifuge tube, spun and resuspended at an appropriate cell density.
Gli-reporter NIH-3T3 cells were seeded at 20,000 cells/well into 96 well, poly-D-lysine coated white clear bottomed full area TC plates in growth media (without geneticin). Three wells were left with just media as cell free controls. Cells were then incubated for 24 hours at 37° C. in a 5% CO2.
Serial dilutions of the test compounds were prepared in 100% DMSO. 10 μl of compound or DMSO from each well was pipetted into a sterile, 0.5 ml deep well conical bottomed 96 well plate (intermediate plate). 190 μl of warmed assay media (Opti-MEM supplemented with 0.5% calf serum, 1% non-essential amino acids, 1 mM sodium pyruvate, 10 mM HEPES, 1% penicillin/Streptomycin) was then added to each well and mixed five times at 180 μl by electronic pipette to ensure homogeneity of the compound solution. This 1:20 dilution gives a top concentration of 50 μM in 5% DMSO, 95% assay media. 10 μl was pipetted from each well of the intermediate plate into a second deep well sterile plate. 490 μl of warm assay media was then added to each well and mixed five times at 300 μl. This gives a final top concentration of 1 μM in 0.1% DMSO.
After the 24 hour incubation, media was carefully removed by pipette and replaced with 45 μl of compound dilutions in triplicate. This was incubated for one hour at 37° C. in a 5% CO2. After an hour, 5 μl 10 μg/mL recombinant mouse sonic hedgehog (R&D Systems) was added to each well and the plates were incubated for a further 24 hours at 37° C., 5% CO2.
After 24 hours, plates were removed from the incubator and left to acclimatise to room temperature for 20 minutes. 50 μl of OneGLO assay reagent (Promega) was then added to each well and the plates gently shaken for a further 30 minutes. Plates were then read for luminescence on the EnVision plate reader (PerkinElmer).

`Cn1nccc1-c1nnc(N2CCC(NCc3ccc(F)cc3C(F)(F)F)CC2)c2cnccc12` [Example 49, N-[[4-fluoro-2-(trifluoromethyl)phenyl]methyl]-1-[1-(2-methylpyrazol-3-yl)pyrido[3,4-d]pyridazin-4-yl]piperidin-4-amine] and `Cn1nccc1-c1nnc(N2CCC(NCc3ccncc3C(F)(F)F)CC2)c2ccccc12` [Example 51, 1-[4-(2-methylpyrazol-3-yl)phthalazin-1-yl]-N-[[3-(trifluoromethyl)-4-pyridyl]methyl]piperidin-4-amine] fall in the same range of IC50: 10 to 200 nM for the first, 10 to 200 nM for the second.

`CN(Cc1cccc(F)c1)C1CCN(c2nnc(-c3ccnn3C)c3ccccc23)CC1` [Example 65, (3-fluorophenyl)methyl-methyl-[1-[4-(2-methylpyrazol-3-yl)phthalazin-1-yl]-4-piperidyl]ammonium] and `CN(Cc1ccccc1)C1CCN(c2nnc(-c3ccnn3C)c3ccccc23)CC1` [Example 59, N-benzyl-N-methyl-1-[4-(2-methylpyrazol-3-yl)phthalazin-1-yl]piperidin-4-amine] fall in the same range of IC50: 10 to 200 nM for the first, 10 to 200 nM for the second.

Compared with `Cn1nccc1-c1nnc(N2CCC(NC(=O)Nc3ccccc3F)CC2)c2ccccc12` [Example 46, 1-(2-fluorophenyl)-3-[1-[4-(2-methylpyrazol-3-yl)phthalazin-1-yl]-4-piperidyl]urea], `Cn1nccc1-c1nnc(N2CCC(NCc3ccccc3F)CC2)c2ccccc12` [Example 72, N-[(2-fluorophenyl)methyl]-1-[4-(2-methylpyrazol-3-yl)phthalazin-1-yl]piperidin-4-amine] is higher in IC50: less than 10 nM for the first, 10 to 200 nM for the second. The first is the more potent here.

`Cn1nccc1-c1nnc(N2CCC(NCc3cccc(F)c3)CC2)c2ccccc12` [Example 73, N-[(3-fluorophenyl)methyl]-1-[4-(2-methylpyrazol-3-yl)phthalazin-1-yl]piperidin-4-amine] and `Cn1nccc1-c1nnc(N2CCC(NCc3ccccc3Cl)CC2)c2ccccc12` [Example 38, N-[(2-chlorophenyl)methyl]-1-[4-(2-methylpyrazol-3-yl)phthalazin-1-yl]piperidin-4-amine] fall in the same range of IC50: 10 to 200 nM for the first, 10 to 200 nM for the second.

First: Cn1nccc1-c1nnc(N2CCC(NCc3ccc(Cl)nc3C(F)(F)F)CC2)c2ccccc12 [Example 44, N-[[6-chloro-2-(trifluoromethyl)-3-pyridyl]methyl]-1-[4-(2-methylpyrazol-3-yl)phthalazin-1-yl]piperidin-4-amine]
Second: Cn1nccc1-c1nnc(N2CCC(NCc3ccc(C(F)(F)F)cc3)CC2)c2ccccc12 [Example 37, 1-[4-(2-methylpyrazol-3-yl)phthalazin-1-yl]-N-[[4-(trifluoromethyl)phenyl]methyl]piperidin-4-amine]
The IC50 of the first is lower: less than 10 nM for the first, 10 to 200 nM for the second.

First: COc1ccc(NC(=O)NC2CCN(c3nnc(-c4ccnn4C)c4ccccc34)CC2)cc1 [Example 45, 1-(4-methoxyphenyl)-3-[1-[4-(2-methylpyrazol-3-yl)phthalazin-1-yl]-4-piperidyl]urea]
Second: Cn1nccc1-c1nnc(N2CCC(NCc3ccc(C#N)cc3)CC2)c2ccccc12 [Example 68, 4-[[[1-[4-(2-methylpyrazol-3-yl)phthalazin-1-yl]-4-piperidyl]amino]methyl]benzonitrile]
The IC50 of the first is lower: 10 to 200 nM for the first, 200 to 2000 nM for the second.

Work on `CN(Cc1ccc(F)cc1C(F)(F)F)C1CCN(c2ccc(-c3ccnn3C)nn2)CC1` [Example 42, N-[[4-fluoro-2-(trifluoromethyl)phenyl]methyl]-N-methyl-1-[6-(2-methylpyrazol-3-yl)pyridazin-3-yl]piperidin-4-amine] yielded an IC50 of less than 10 nM.

Same assay, conditions: NIH3T3; Gli-reporter NIH-3T3 cells, recombinant mouse sonic hedgehog, 24 hours, luminescence; read-out: Gli Luc nM (IC50)

With `CN(Cc1ccc(F)cc1C(F)(F)F)C1CCN(c2ccc(-c3ccnn3C)nn2)CC1` [Example 42, N-[[4-fluoro-2-(trifluoromethyl)phenyl]methyl]-N-methyl-1-[6-(2-methylpyrazol-3-yl)pyridazin-3-yl]piperidin-4-amine] the IC50 was 0.04 nM.

Same assay, conditions: NIH3T3; Gli-reporter NIH-3T3 cells, recombinant mouse sonic hedgehog, 24 hours, luminescence; read-out: Gli luc IC50

`Fc1ccc(CNC2CCN(c3nnc(N4CCOCC4)c4ccccc34)CC2)c(C(F)(F)F)c1` [Example 145, N-[[4-fluoro-2-(trifluoromethyl)phenyl]methyl]-1-(4-morpholinophthalazin-1-yl)piperidin-4-amine] and `Cn1nccc1-c1nnc(N2CCC(NCc3ccc(F)cc3C(F)(F)F)CC2)c2ncccc12` [Example 146, N-[[4-fluoro-2-(trifluoromethyl)phenyl]methyl]-1-[5-(2-methylpyrazol-3-yl)pyrido[2,3-d]pyridazin-8-yl]piperidin-4-amine] cannot be ordered by IC50: greater than 200 nM for the first, greater than 200 nM for the second.

`Cn1nccc1-c1nnc(N2CCC(NS(=O)(=O)c3ccc(F)cc3C(F)(F)F)CC2)c2cnccc12` [Example 106, 4-fluoro-N-[1-[1-(2-methylpyrazol-3-yl)pyrido[3,4-d]pyridazin-4-yl]-4-piperidyl]-2-(trifluoromethyl)benzenesulfonamide] and `CC(NC1CCN(c2nnc(-c3ccnn3C)c3ccccc23)CC1)c1ccc(F)cc1C(F)(F)F` (stereo not drawn) [Example 143, N-[1-[4-fluoro-2-(trifluoromethyl)phenyl]ethyl]-1-[4-(2-methylpyrazol-3-yl)phthalazin-1-yl]piperidin-4-amine] fall in the same range of IC50: 10 to 200 nM for the first, 10 to 200 nM for the second.

First: Cn1nccc1-c1nnc(N2CCC(NS(=O)(=O)c3ccc(F)cc3F)CC2)c2c1CCC2 [Example 141, 2,4-difluoro-N-[1-[1-(2-methylpyrazol-3-yl)-6,7-dihydro-5H-cyclopenta[d]pyridazin-4-yl]-4-piperidyl]benzenesulfonamide]
Second: CN(C(=O)Nc1ccc(F)cc1C(F)(F)F)C1CCN(c2nnc(-c3ccnn3C)c3c2CCC3)CC1 [Example 125, 3-[4-fluoro-2-(trifluoromethyl)phenyl]-1-methyl-1-[1-[1-(2-methylpyrazol-3-yl)-6,7-dihydro-5H-cyclopenta[d]pyridazin-4-yl]-4-piperidyl]urea]
The IC50 of the first is higher: 10 to 200 nM for the first, less than 10 nM for the second. The second is the more potent here.

First: COc1ccc(-c2nnc(N3CCC(NCc4ccc(F)cc4C(F)(F)F)CC3)c(C)c2C)cn1 [Example 120, N-[[4-fluoro-2-(trifluoromethyl)phenyl]methyl]-1-[6-(6-methoxy-3-pyridyl)-4,5-dimethyl-pyridazin-3-yl]piperidin-4-amine]
Second: COc1cc(-c2nnc(N3CCC(NCc4ccc(F)cc4C(F)(F)F)CC3)c(C)c2C)ccn1 [Example 121, N-[[4-fluoro-2-(trifluoromethyl)phenyl]methyl]-1-[6-(2-methoxy-4-pyridyl)-4,5-dimethyl-pyridazin-3-yl]piperidin-4-amine]
The IC50 of the first is lower: 10 to 200 nM for the first, greater than 200 nM for the second.

`CN(C(=O)Nc1ccc(F)cc1F)C1CCN(c2nnc(-c3ccnn3C)c3cccnc23)CC1` [Example 136, 3-(2,4-difluorophenyl)-1-methyl-1-[1-[5-(2-methylpyrazol-3-yl)pyrido[2,3-d]pyridazin-8-yl]-4-piperidyl]urea] and `Cn1nccc1-c1nnc(N2CCC(NC(=O)Nc3ccc(F)cc3F)CC2)c2cnccc12` [Example 104, 1-(2,4-difluorophenyl)-3-[1-[1-(2-methylpyrazol-3-yl)pyrido[3,4-d]pyridazin-4-yl]-4-piperidyl]urea] fall in the same range of IC50: 10 to 200 nM for the first, 10 to 200 nM for the second.

First: COC(=O)c1ccc(CNC2CCN(c3nnc(-c4ccnn4C)c4ccccc34)CC2)nc1 [Example 166, methyl 6-[[[1-[4-(2-methylpyrazol-3-yl)phthalazin-1-yl]-4-piperidyl]amino]methyl]pyridine-3-carboxylate]
Second: CN(Cc1ccccc1[N+](=O)[O-])C1CCN(c2nnc(-c3ccnn3C)c3ccccc23)CC1 [Example 114, N-methyl-1-[4-(2-methylpyrazol-3-yl)phthalazin-1-yl]-N-[(2-nitrophenyl)methyl]piperidin-4-amine]
The IC50 of the first is higher: greater than 200 nM for the first, 10 to 200 nM for the second. The second is the more potent here.

`Cn1nccc1-c1nnc(N2CCC(NC(=O)NC3(C(F)(F)F)CC3)CC2)c2ccccc12` [Example 109, 1-[1-[4-(2-methylpyrazol-3-yl)phthalazin-1-yl]-4-piperidyl]-3-[1-(trifluoromethyl)cyclopropyl]urea] and `Cc1c(-c2ccnn2C)nnc(N2CCC(N(C)Cc3cccc(OC(F)(F)F)c3)CC2)c1C` [Example 83, 1-[4,5-dimethyl-6-(2-methylpyrazol-3-yl)pyridazin-3-yl]-N-methyl-N-[[3-(trifluoromethoxy)phenyl]methyl]piperidin-4-amine] fall in the same range of IC50: 10 to 200 nM for the first, 10 to 200 nM for the second.

First: COc1ccc(-c2nnc(N3CCC(N(C)Cc4ccc(F)cc4C(F)(F)F)CC3)c(C)c2C)cn1 [Example 110, N-[[4-fluoro-2-(trifluoromethyl)phenyl]methyl]-1-[6-(6-methoxy-3-pyridyl)-4,5-dimethyl-pyridazin-3-yl]-N-methyl-piperidin-4-amine]
Second: Cc1c(-c2ccnn2C)nnc(N2CCC(N(C)C(=O)Nc3cnncc3C(F)(F)F)CC2)c1C [Example 107, 1-[1-[4,5-dimethyl-6-(2-methylpyrazol-3-yl)pyridazin-3-yl]-4-piperidyl]-1-methyl-3-[5-(trifluoromethyl)pyridazin-4-yl]urea]
The IC50 of the first is lower: 10 to 200 nM for the first, greater than 200 nM for the second. The first is the more potent here.
